Laboratory results reported in patent US11661426B2, “Imidazole-containing inhibitors of ALK2 kinase” (BioCryst Pharmaceuticals, Inc., priority 2017, dated 2023).

Biological target: ALK2 (Homo sapiens (Human), UniProt Q04771)
Experiment: ALK2 inhibition, LanthaScreen Eu Kinase Binding Assay (ThermoFisher Scientific / Life Technologies)
Details: read-out: Measured Ki (IC50) Value for Compounds: IC50
Experimental: Biochemical assays to measure the inhibitory effects of the compounds were performed by ThermoFisher Scientific (Life Technologies). ALK2 inhibition was tested using LanthaScreen™ Eu Kinase Binding Assay screening protocol.

Sequence of ALK2 (Q04771 21-509): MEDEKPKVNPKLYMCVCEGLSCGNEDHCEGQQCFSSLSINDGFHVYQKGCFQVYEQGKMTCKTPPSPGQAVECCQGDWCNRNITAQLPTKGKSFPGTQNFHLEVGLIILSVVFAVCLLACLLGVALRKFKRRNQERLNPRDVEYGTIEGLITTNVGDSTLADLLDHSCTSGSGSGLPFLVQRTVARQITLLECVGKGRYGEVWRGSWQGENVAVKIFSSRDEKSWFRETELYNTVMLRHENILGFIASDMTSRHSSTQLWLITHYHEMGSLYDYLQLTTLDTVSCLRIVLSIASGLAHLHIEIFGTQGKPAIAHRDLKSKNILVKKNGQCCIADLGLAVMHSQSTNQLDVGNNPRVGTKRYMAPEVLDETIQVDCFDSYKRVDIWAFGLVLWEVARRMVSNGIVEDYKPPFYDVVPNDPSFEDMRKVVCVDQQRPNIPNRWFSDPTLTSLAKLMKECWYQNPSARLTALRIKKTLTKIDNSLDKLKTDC

First: COc1cc(-n2cnc(Nc3nc(N4CCC[C@@H]4CO)c4cccn4n3)c2)cc(OC)c1OC [Compound 227b, (R)-(1-(2-((1-(3,4,5-trimethoxyphenyl)-1H-imidazol-4-yl)amino)pyrrolo[2,1-f][1,2,4]triazin-4-yl)pyrrolidin-2-yl)methanol]
Second: COc1cc(-n2cnc(Nc3nc(N4CCC[C@@H]4CO)nn4cccc34)c2)cc(OC)c1OC [Compound 238a, (R)-(1-(4-((1-(3,4,5-trimethoxyphenyl)-1H-imidazol-4-yl)amino)pyrrolo[2,1-f][1,2,4]triazin-2-yl)pyrrolidin-2-yl)methanol]
The IC50 of the first is higher: 100 to 1000 nM for the first, < 100 nM for the second.

COc1cncc(-n2cnc(Nc3nc(N4CCC[C@H]4CO)c4cccn4n3)c2)c1 [Compound 228d, (S)-(1-(2-((1-(5-methoxypyridin-3-yl)-1H-imidazol-4-yl)amino)pyrrolo[2,1-f][1,2,4]triazin-4-yl)pyrrolidin-2-yl)methanol] and COc1cc(Cl)cc(-n2cnc(Nc3nc(N4CCC[C@H]4CO)c4cccn4n3)c2)c1 [Compound 249d, (S)-(1-(2-((1-(3-chloro-5-methoxyphenyl)-1H-imidazol-4-yl)amino)pyrrolo[2,1-f][1,2,4]triazin-4-yl)pyrrolidin-2-yl)methanol] fall in the same range of IC50: 100 to 1000 nM for the first, 100 to 1000 nM for the second.

First: COc1ccc(-n2cnc(Nc3nc(N4CCC[C@H]4CO)c4cccn4n3)c2)cc1C(F)(F)F [Compound 229d, (S)-(1-(2-((1-(4-methoxy-3-(trifluoromethyl)phenyl)-1H-imidazol-4-yl)amino)pyrrolo[2,1-f][1,2,4]triazin-4-yl)pyrrolidin-2-yl)methanol]
Second: COc1cc(-n2cnc(Nc3nc(N4CCC[C@H]4CO)c4cccn4n3)c2)ccc1Cl [Compound 250d, (S)-(1-(2-((1-(4-chloro-3-methoxyphenyl)-1H-imidazol-4-yl)amino)pyrrolo[2,1-f][1,2,4]triazin-4-yl)pyrrolidin-2-yl)methanol]
The IC50 of the first is lower: 100 to 1000 nM for the first, > 1000 nM for the second. The first is the more potent here.

First: COc1cc(-n2cnc(Nc3nc(N4CCC[C@H]4C(N)=O)c4cccn4n3)c2)cc(C(N)=O)c1OC [Compound 230f, (S)-1-(2-((1-(3-carbamoyl-4,5-dimethoxyphenyl)-1H-imidazol-4-yl)amino)pyrrolo[2,1-f][1,2,4]triazin-4-yl)pyrrolidine-2-carboxamide]
Second: COc1cc(-n2cnc(Nc3nc(N4CCC[C@H]4CO)c4cccn4n3)c2)cc(C(N)=O)c1OC [Compound 231a, (S)-5-(4-((4-(2-(hydroxymethyl)pyrrolidin-1-yl)pyrrolo[2,1-f][1,2,4]triazin-2-yl)amino)-1H-imidazol-1-yl)-2,3-dimethoxybenzamide]
The IC50 of the first is higher: > 1000 nM for the first, 100 to 1000 nM for the second.

Compared with COc1cc(-n2cnc(Nc3nc(N4CCCC4)c4ncsc4n3)c2)cc(OC)c1OC [Compound 233b, 7-(pyrrolidin-1-yl)-N-(1-(3,4,5-trimethoxyphenyl)-1H-imidazol-4-yl)thiazolo[5,4-d]pyrimidin-5-amine], COc1cc(-n2cnc(Nc3nc4c(c(N5CCC[C@H]5CO)n3)CN(C(=O)C3CC3)CC4)c2)cc(OC)c1OC [Compound 239a, (S)-cyclopropyl(4-(2-(hydroxymethyl)pyrrolidin-1-yl)-2-((1-(3,4,5-trimethoxyphenyl)-1H-imidazol-4-yl)amino)-7,8-dihydropyrido[4,3-d]pyrimidin-6(5H)-yl)methanone] is lower in IC50: 100 to 1000 nM for the first, < 100 nM for the second. The second is the more potent here.

COc1cc(-n2cnc(Nc3nc(N4CCC[C@H]4CO)c4cccn4n3)c2)cc(C(C)=O)c1OC [Compound 234e, (S)-1-(5-(4-((4-(2-(hydroxymethyl)pyrrolidin-1-yl)pyrrolo[2,1-f][1,2,4]triazin-2-yl)amino)-1H-imidazol-1-yl)-2,3-dimethoxyphenyl)ethanone] and COc1ccc(-n2cnc(Nc3nc(N4CCC[C@H]4CO)c4cccn4n3)c2)cc1OC [Compound 243a, (S)-(1-(2-((1-(3,4-dimethoxyphenyl)-1H-imidazol-4-yl)amino)pyrrolo[2,1-f][1,2,4]triazin-4-yl)pyrrolidin-2-yl)methanol] fall in the same range of IC50: 100 to 1000 nM for the first, 100 to 1000 nM for the second.

COc1cc(-n2cnc(Nc3nc(N4CCN(C)CC4)nc4ccoc34)c2)cc(OC)c1OC [Compound 235a, 2-(4-methylpiperazin-1-yl)-N-(1-(3,4,5-trimethoxyphenyl)-1H-imidazol-4-yl)furo[3,2-d]pyrimidin-4-amine] and COc1cc(-n2cnc(Nc3nc(N4CC[C@@H](O)C4)nc4ccoc34)c2)cc(OC)c1OC [Compound 236a, (R)-1-(4-((1-(3,4,5-trimethoxyphenyl)-1H-imidazol-4-yl)amino)furo[3,2-d]pyrimidin-2-yl)pyrrolidin-3-ol] cannot be ordered by IC50: < 100 nM for the first, < 100 nM for the second.

COc1cc(-n2cnc(Nc3nc(N4CC[C@H](O)C4)nc4ccoc34)c2)cc(OC)c1OC [Compound 237a, (S)-1-(4-((1-(3,4,5-trimethoxyphenyl)-1H-imidazol-4-yl)amino)furo[3,2-d]pyrimidin-2-yl)pyrrolidin-3-ol] and COc1cc(-n2cnc(Nc3nc(N4CC[C@@H](CO)C4)nc4ccoc34)c2)cc(OC)c1OC [Compound 246a, (R)-(1-(4-((1-(3,4,5-trimethoxyphenyl)-1H-imidazol-4-yl)amino)furo[3,2-d]pyrimidin-2-yl)pyrrolidin-3-yl)methanol] cannot be ordered by IC50: < 100 nM for the first, < 100 nM for the second.

COc1cc(-n2cnc(Nc3nc4c(c(N5CCC[C@H]5CO)n3)CN(C(=O)[C@@H]3CCC(=O)N3)CC4)c2)cc(OC)c1OC [Compound 240a, (S)-5-(4-((S)-2-(hydroxymethyl)pyrrolidin-1-yl)-2-((1-(3,4,5-trimethoxyphenyl)-1H-imidazol-4-yl)amino)-5,6,7,8-tetrahydropyrido[4,3-d]pyrimidine-6-carbonyl)pyrrolidin-2-one] and COc1cc(-n2cnc(Nc3nc4c(c(N5CCC[C@H]5CO)n3)CN(C(=O)c3ccc(C#N)cc3)CC4)c2)cc(OC)c1OC [Compound 241a, (S)-4-(4-(2-(hydroxymethyl)pyrrolidin-1-yl)-2-((1-(3,4,5-trimethoxyphenyl)-1H-imidazol-4-yl)amino)-5,6,7,8-tetrahydropyrido[4,3-d]pyrimidine-6-carbonyl)benzonitrile] cannot be ordered by IC50: < 100 nM for the first, < 100 nM for the second.

COc1cc(OC)cc(-n2cnc(Nc3nc(N4CCC[C@H]4CO)c4cccn4n3)c2)c1 [Compound 242a, (S)-(1-(2-((1-(3,5-dimethoxyphenyl)-1H-imidazol-4-yl)amino)pyrrolo[2,1-f][1,2,4]triazin-4-yl)pyrrolidin-2-yl)methanol] and COc1cc(C)cc(-n2cnc(Nc3nc(N4CCC[C@H]4CO)c4cccn4n3)c2)c1 [Compound 257d, (S)-(1-(2-((1-(3-methoxy-5-methylphenyl)-1H-imidazol-4-yl)amino)pyrrolo[2,1-f][1,2,4]triazin-4-yl)pyrrolidin-2-yl)methanol] fall in the same range of IC50: 100 to 1000 nM for the first, 100 to 1000 nM for the second.

COc1cc(-n2cnc(Nc3nc(N4CCC[C@H]4CO)c4ccc(OC(C)C)cc4n3)c2)cc(OC)c1OC [Compound 244b, (S)-(1-(7-isopropoxy-2-((1-(3,4,5-trimethoxyphenyl)-1H-imidazol-4-yl)amino)quinazolin-4-yl)pyrrolidin-2-yl)methanol] and CNC(=O)[C@@H]1CCCN1c1nc(Nc2cn(-c3cc(OC)c(OC)c(OC)c3)cn2)c2occc2n1 [Compound 252a, (S)—N-methyl-1-(4-((1-(3,4,5-trimethoxyphenyl)-1H-imidazol-4-yl)amino)furo[3,2-d]pyrimidin-2-yl)pyrrolidine-2-carboxamide] cannot be ordered by IC50: < 100 nM for the first, < 100 nM for the second.

COc1cc(-n2cnc(Nc3nc(N4CCC[C@H]4C(N)=O)nn4c(CN5CCNCC5)ccc34)c2)cc(OC)c1OC [Compound 245c, (S)-1-(7-(piperazin-1-ylmethyl)-4-((1-(3,4,5-trimethoxyphenyl)-1H-imidazol-4-yl)amino)pyrrolo[2,1-f][1,2,4]triazin-2-yl)pyrrolidine-2-carboxamide] and COc1cc(-n2cnc(Nc3nc(N4CCC[C@H]4C(N)=O)nc4c3CCN(CCC(N)=O)C4)c2)cc(OC)c1OC [Compound 255a, (S)-1-(7-(3-amino-3-oxopropyl)-4-((1-(3,4,5-trimethoxyphenyl)-1H-imidazol-4-yl)amino)-5,6,7,8-tetrahydropyrido[3,4-d]pyrimidin-2-yl)pyrrolidine-2-carboxamide] cannot be ordered by IC50: < 100 nM for the first, < 100 nM for the second.

COc1cc(-n2cnc(Nc3nc(N4CCC[C@H]4C(=O)NC4CC4)nc4ccoc34)c2)cc(OC)c1OC [Compound 247b, (S)—N-cyclopropyl-1-(4-((1-(3,4,5-trimethoxyphenyl)-1H-imidazol-4-yl)amino)furo[3,2-d]pyrimidin-2-yl)pyrrolidine-2-carboxamide] and COc1cc(-n2cnc(Nc3nc(N4CCC[C@H]4C(=O)NCC4CC4)nc4ccoc34)c2)cc(OC)c1OC [Compound 248a, (S)—N-(cyclopropylmethyl)-1-(4-((1-(3,4,5-trimethoxyphenyl)-1H-imidazol-4-yl)amino)furo[3,2-d]pyrimidin-2-yl)pyrrolidine-2-carboxamide] cannot be ordered by IC50: < 100 nM for the first, < 100 nM for the second.

Compared with COc1cc(-n2cnc(Nc3nc(N4CC[C@@H](N(C)C)C4)nc4ccoc34)c2)cc(OC)c1OC [Compound 251a, (R)-2-(3-(dimethylamino)pyrrolidin-1-yl)-N-(1-(3,4,5-trimethoxyphenyl)-1H-imidazol-4-yl)furo[3,2-d]pyrimidin-4-amine], COc1cc(-n2cnc(Nc3nc(N4CCC[C@H]4C(N)=O)nc4cnn(C)c34)c2)cc(OC)c1OC [Compound 253c, (S)-1-(1-methyl-7-((1-(3,4,5-trimethoxyphenyl)-1H-imidazol-4-yl)amino)-1H-pyrazolo[4,3-d]pyrimidin-5-yl)pyrrolidine-2-carboxamide] is higher in IC50: < 100 nM for the first, > 1000 nM for the second.

Going from COc1cc(-n2cnc(Nc3nc(N4CCC[C@H]4CO)nc4c3CCN(CCC(N)=O)C4)c2)cc(OC)c1OC [Compound 254a, (S)-3-(2-(2-(hydroxymethyl)pyrrolidin-1-yl)-4-((1-(3,4,5-trimethoxyphenyl)-1H-imidazol-4-yl)amino)-5,6-dihydropyrido[3,4-d]pyrimidin-7(8H)-yl)propanamide] to CCOc1ccc(-n2cnc(Nc3nc(N4CCC[C@H]4CO)c4cccn4n3)c2)cc1OCC [Compound 256d, (S)-(1-(2-((1-(3,4-diethoxyphenyl)-1H-imidazol-4-yl)amino)pyrrolo[2,1-f][1,2,4]triazin-4-yl)pyrrolidin-2-yl)methanol], the IC50 rises from < 100 nM to > 1000 nM.
